{"source": "a melting point compilation (Tetko et al.; mined from patent text by program, amines drawn as free bases though some values may be those of a salt)"}
{"units": {"melting point": "°C"}}
{"smiles": "Nc1ccc(Oc2cc(F)c(C(F)(F)F)c(Cl)c2)cc1", "melting point": "55 to 57"}
{"smiles": "BrCc1cccc(OCCCCOc2ccccc2)c1", "melting point": "47 to 49"}
{"smiles": "O=C(c1ccccc1)N1CCCC(c2ccc(Cl)cc2)=N1", "melting point": "117 to 118"}
{"smiles": "CC(C)c1cc([N+](=O)[O-])cc(C(C)C)c1OS(N)(=O)=O", "melting point": "163 to 167"}
{"smiles": "COc1cccc(Oc2c(NCCOc3ncccn3)ncnc2NS(=O)(=O)c2ccc(C(C)(C)C)cc2)c1", "melting point": "148 to 149"}
{"smiles": "CCCCOC(=O)[C@H]1CN(c2cc(F)c(C3CCSCC3)c(F)c2)C(=O)O1", "melting point": "86 to 89"}
{"smiles": "CC(C)N(C(=S)ON1C(=O)c2ccccc2C1=O)C(C)C", "melting point": "73 to 75"}
{"smiles": "Oc1ccc2c(c1)COc1c-2cc2ccc(O)cc2c1-c1ccc(Cl)cc1", "melting point": "239 to 242"}
{"smiles": "CCS(=O)c1cn(C)cc(-c2cccc(C(F)(F)F)c2)c1=O", "note": "(stereo unspecified)", "melting point": "146 to 148"}
{"smiles": "CO[C@]1(c2ncc(S(=O)(=O)c3ccc(/C(C)=N/O)cc3)s2)CCO[C@@H]1C", "note": "(racemic)", "melting point": "139 to 141"}
{"smiles": "CN(CCOc1ccccc1)[C@H]1CC[C@H](c2ccc(O)cc2)CC1", "melting point": "90 to 92"}
{"smiles": "CCN(c1nc(C)cc(C)n1)c1c(O)cc(OC)cc1Br", "melting point": "157 to 160"}
{"smiles": "COc1cc(OC)cc(C(=CC#N)c2ccc(OC)c(N)c2)c1", "melting point": "93 to 95"}
{"smiles": "O=C(O)COc1ccc(SCc2ccc(OCc3ccc(C(F)(F)F)cc3)cc2)c2c1CCCO2", "melting point": "143 to 144"}
{"smiles": "COCCCNC(=O)c1cc2c(nc(C)n2C)c2c1CCC1(Cc3ccccc3C1)N2", "melting point": "188 to 189"}
{"smiles": "COc1cc2c(=O)c(S(C)=O)nn(C)c2cc1OC", "note": "(stereo unspecified)", "melting point": "262 to 264"}
{"smiles": "CCOc1ccc(C2=NN(C3CCN(S(=O)(=O)c4ccc(C)cc4)CC3)C(=O)[C@@H]3CC=CC[C@H]23)cc1OCC", "melting point": "99 to 101"}
{"smiles": "COC(=O)C(=O)c1ccc(NC(=O)COc2ccc3ccccc3c2)cc1", "melting point": "175 to 176"}
{"smiles": "O=C(c1cccc(Cl)c1)c1ccccc1Nc1ncccc1[N+](=O)[O-]", "melting point": "124 to 125"}
{"smiles": "O=c1cc(-c2cccc(F)c2)oc(N2CCOCC2)c1", "melting point": "169 to 170"}
{"smiles": "COc1ccc(C(=O)Nc2c(Cl)cncc2Cl)c2c1oc1ccccc12", "melting point": 302}
{"smiles": "NC(Cc1ccc(OCc2ccccc2)cn1)C(=O)Nc1ccc(CCCC(=O)NO)cc1", "note": "(stereo unspecified)", "melting point": "> 300"}
{"smiles": "CCCCCCCCCCCCCCC1COC2(CC(c3ccccc3)NC(c3ccccc3)C2)O1", "note": "(stereo unspecified)", "melting point": "63 to 70"}
{"smiles": "CCOC(=O)c1cc(C)c(Cl)nc1C(=O)OCC", "melting point": "84 to 86"}
{"smiles": "CC(=O)OC1C(COC(=O)c2ccccc2)OC(n2cc(F)c(=O)[nH]c2=O)C1F", "note": "(stereo unspecified)", "melting point": "177 to 179"}
{"smiles": "COc1cc2c(cc1Br)C1=C(c3cccs3)C3CSCCN(C(C)(C)C)C(=O)C3N1CC2", "note": "(stereo unspecified)", "melting point": "233 to 235"}
{"smiles": "CC(C)(C)OC(=O)NCCNC(=O)c1ncccc1Br", "melting point": "125 to 130"}
{"smiles": "CCOC(=O)c1ccc(N=C(Nc2ccc(C(=O)OCC)cc2)c2ccc(C)cc2)cc1", "melting point": "246 to 260"}
{"smiles": "CC(C(=O)O)c1ccc(CC2CCCCC2=NO)cc1", "note": "(stereo unspecified)", "melting point": "143 to 150"}
{"smiles": "COc1ccc2c(c1)c1c3c(c(-c4c(Cl)cccc4OC)cc1n2CCO)C(=O)NC3=O", "melting point": "264 to 268"}
{"smiles": "CC1(C)Oc2ccc(C#N)cc2[C@@H](NC(=O)C2=C(c3ccccc3)CCC2)[C@@H]1O", "melting point": "156 to 158"}
{"smiles": "O=C(NC1CCOCC1)c1ccc2nonc2c1", "melting point": "204 to 205"}
{"smiles": "CN(C)C1(C(N)=O)CCCCC1", "melting point": "65 to 69"}
{"smiles": "Sc1nncn1Cc1ccccc1", "melting point": "124 to 125"}
{"smiles": "CC1Cc2cc(S(N)(=O)=O)cc(C(=O)NCC3CCCN3C)c2O1", "note": "(stereo unspecified)", "melting point": "187 to 189"}
{"smiles": "Cc1ccc(S(=O)(=O)Nc2nc(-c3cc(F)cc(C(F)(F)F)c3)cs2)cc1", "melting point": "123 to 125"}
{"smiles": "CSc1ccc(C(C)Nc2nc(NC(C)=O)nc(C(F)(F)F)n2)cc1", "note": "(stereo unspecified)", "melting point": 132}
{"smiles": "COC(=O)CCC(=O)c1ccc(OC(=S)N(C)C)cc1", "melting point": "62 to 64"}
{"smiles": "NC(=O)Cc1cccc(Oc2ccccc2)c1", "melting point": "115 to 117"}
{"smiles": "COC(=O)C1=C(C)NC(C)=C(C(=O)OCOC(=O)C(C)(C)C)C1c1ccccc1", "note": "(single isomer, unassigned; (+))", "melting point": "81 to 82"}
{"smiles": "CC(C)NC(=O)n1cc(Cl)c(-c2cc(Cl)cc(Cl)c2)n1", "melting point": 127}
{"smiles": "O=C1CCC(c2ccncc2)=NN1", "melting point": "185 to 187"}
{"smiles": "Cc1nc(Oc2ccc(F)cc2)cc(Oc2ccc(F)cc2)n1", "melting point": "93 to 97"}
{"smiles": "CCOC(=O)COCCN(C)C(=O)c1c(-c2ccc(C(C)(C)C)cc2)n(C)n(-c2ccc(C#N)cc2)c1=O", "melting point": "192 to 194"}
{"smiles": "COc1ccc(N2CCN(c3c(C)c4c(c(C)c3Br)OC(C)(C)C4)CC2)cc1", "melting point": "180 to 181"}
{"smiles": "O=C(O)Cc1ccc2c(c1)Cc1ccccc1-2", "melting point": "184 to 186"}
{"smiles": "CC(C)(C)OC(=O)N1C[C@@H]2SCCC(c3ccccc3)(c3ccccc3)[C@@H]2C1", "note": "(racemic)", "melting point": 162}
{"smiles": "N#Cc1ccc(C(Cl)(Cl)Cl)cc1C(Cl)(Cl)Cl", "melting point": "76 to 78"}
{"smiles": "Nc1ncc2c(n1)CCC(NC(=O)[C@@H]1CCCN1C(=O)[C@@H](CC1CCCCC1)NS(=O)(=O)Cc1ccccc1)C2", "note": "(stereo partly specified)", "melting point": "114 to 117"}
{"smiles": "CC(=O)CN(c1ccc(Cl)cc1)S(C)(=O)=O", "melting point": 108}
{"smiles": "COC(=O)c1ccc(NC(C)=O)cc1OC", "melting point": "130 to 132"}
{"smiles": "CCN1c2cscc2C(=O)N(CCN(C)C)c2ccccc21", "melting point": "75 to 77"}
{"smiles": "CCOC(=O)NNC(=O)NCCCC(=O)OC", "melting point": "95 to 96"}
{"smiles": "O=C(O)c1ccccc1OCCCc1cc(-c2ccc(C(F)(F)F)cc2)no1", "melting point": "132 to 133"}
{"smiles": "O=C1Nc2cc(C(F)(F)F)ccc2C1(O)c1cc(Cl)ccc1O", "note": "(stereo unspecified)", "melting point": "198 to 200"}
{"smiles": "O=C(O)C12C3C4C5C(C1C53[N+](=O)[O-])C42[N+](=O)[O-]", "note": "(stereo unspecified)", "melting point": 187}
{"smiles": "Cc1cc(NCCNCC(O)COc2ccccc2)n2ncnc2n1", "note": "(stereo unspecified)", "melting point": "126 to 127"}
{"smiles": "CCOC(=O)/C=C/c1ccc(OCC(C)=O)cc1Oc1ncc(C(F)(F)F)cc1Cl", "melting point": "167 to 168"}
{"smiles": "CC(C(=O)O)n1c(-c2ccc(Cl)cc2)nc2cccnc21", "note": "(stereo unspecified)", "melting point": "226 to 229"}
{"smiles": "N#CNc1ccccc1N1CCOCC1", "melting point": "175 to 176"}
{"smiles": "Cc1cc(O)ccc1-n1cc(C(=O)O)c(=O)cc1C=O", "melting point": "230 to 250"}
{"smiles": "Cc1ccc(S(=O)(=O)OCCC2CCc3ccccc3O2)cc1", "note": "(stereo unspecified)", "melting point": "57 to 59"}
{"smiles": "CC(C)(C)OC(=O)NCCCCC(=O)Nc1cccc(C(=O)O)c1", "melting point": 188}
{"smiles": "COc1cc(OC)c(-c2cc3ccccc3[nH]2)cc1C=CC(=O)c1ccc(C(=O)O)cc1", "melting point": "210 to 212"}
{"smiles": "COc1ccc2nc3c(cc2c1)c(N)nn3CC(=O)N(C)C", "melting point": "251 to 253"}
{"smiles": "O=C1Cn2c(cc3ccccc32)C(=O)N1CCCCN1CCN(c2ncccn2)CC1", "melting point": "237 to 239"}
{"smiles": "CCN(CC)CCNC(=O)c1cc(Cl)c(N)cc1OCCOC(C)=O", "melting point": "101 to 102"}
{"smiles": "CCCCCCCCCCCCOCCCNc1cc(OCC(=O)Nc2ccc(NNC=O)cc2)c2ccccc2c1O", "melting point": "137 to 141"}
{"smiles": "C=CCNC(=S)C(OC)c1ccccn1", "note": "(stereo unspecified)", "melting point": "59.5 to 60"}
{"smiles": "O=C(c1ccccc1)c1ccc(Cl)nc1", "melting point": "39 to 40"}
{"smiles": "CC(C)(C)[Si](C)(C)Oc1ccc2c(c1)OC(O)c1c-2ccc2cc(O[Si](C)(C)C(C)(C)C)ccc12", "note": "(stereo unspecified)", "melting point": "188 to 190"}
